Patent publication US20050187253A1, “Medicinal kit to quit tobacco consumption comprising central cannabinoid receptor antagonist” (Sanofi-Aventis, priority 2000, published 2005)

Columns and labels:
[1] = system: rats which have learnt to self-administer nicotine intravenously; experiment: self-administration of nicotine in rats (model predicting effects on nicotine dependence); type: in vivo; conditions: intravenous nicotine self-administration
From the text: The effects of compound A were studied in rats on a model which predicts the effects on nicotine dependence: the self-administration of nicotine according to W.T. Corrigal and al. Psychopharmacology, 1989, 99, 473-478.

[2] = system: individuals who smoked more than 15 cigarettes a day and who showed symptoms of nicotine dependence; experiment: double-blind placebo-controlled study of withdrawal from tobacco in smokers; type: in vivo, human; conditions: 40 mg per day for 10 weeks, including 2 weeks before start of withdrawal; in particular during the last 4 weeks of treatment; confirmed by exhaled carbon monoxide and plasma cotinine
Procedure: The patients received 40 mg of compound A per day for 10 weeks, including 2 weeks before the start of the period of withdrawal from tobacco. […] The withdrawal from tobacco was confirmed by weekly measurement of the levels of carbon monoxide exhaled and of cotinine in the plasma.

Cc1c(C(=O)NN2CCCCC2)nn(-c2ccc(Cl)cc2Cl)c1-c1ccc(Cl)cc1 [compound A, N-piperidino-5-(4-chloro-phenyl)-1-(2,4-dichlorophenyl)-4-methylpyrazole-3-carboxamide]
number of nicotine injections ([1]; compound A at a dose of 0.3 mg/kg): reduces, in a statistically significant manner | number of nicotine injections ([1]; compound A at a dose of 1 mg/kg): reduces, in a statistically significant manner | level of withdrawal from tobacco versus placebo group [2]: greater level of withdrawal
